Where two headings read alike, the source gives them in different places.
Key:
[1] = Mouse brain penetration study; type: in vivo, female C57BL6 mice
Protocol: Inhibitor 1 (and prodrugs 1a, 1b, 1c and 1d) was dosed as a bolus solution intravenously at 1 mg free base/kg (dose volume: 5 mL/kg; dose vehicle: 5% DMSO; 95% saline (inhibitor 1) or 5% DMSO; 40% PEG400; 55% MilliQ H2O (prodrugs 1a, 1b, 1c and 1d)) to female C57BL6 mice (n = 6). At 5 min and 60 min following intravenous bolus injection of test compound, mice (n = 3/timepoint) were placed under terminal anaesthesia with isofluorane. A blood sample was taken by cardiac puncture, the […] decapitated and the brain removed. Brain weight was noted and each brain homogenised with two volumes of methanol (2 mL/g brain). Each blood sample was diluted with distilled water (1:10). Diluted blood and the brain homogenates were then stored frozen until preparation and analysis by UPLC-MS/MS. For each mouse at each timepoint for 1, the concentration in brain (ng/g) was divided by the concentration in blood (ng/mL) to give a brain:blood ratio. The mean value obtained was quoted. For prodrugs 1a to 1d, only the concentration of 1 in blood (ng/mL) and brain (ng/g) was reported.
A rapid and sensitive ultra-performance chromatography/tandem mass spectrometry (UPLC-MS/MS) method was developed and validated for the determination of inhibitor 1 and prodrug 1b (rat only). Chromatographic analysis was conducted on a Waters Acquity™ UPLC system. Chromatographic separation was performed with an Acquity™ UPLC BEH C18 column (50 × 2.1 mm, 1.7 µm, 130Å; Waters Corp.) maintained at 40 °C in a column oven. The mobile phase consisted of water with 0.01% formic acid and ACN with 0.01 % formic acid and it was delivered at a flow rate of 0.6 mL/min under gradient eluent conditions within an analysis cycle time of 3 min. The mass detection was conducted on a Waters Xevo™ TQs mass spectrometer equipped with a ScanWave™ technology. Quantitation of the analyte was performed in electrospray positive ionisation mode (ESI^+) using multiple reaction monitoring. The optimised fragmentation transition was m/z = 270.17 → 196.19 (mouse) or m/z = 270.17 → 223.76 (rat) for inhibitor 1 and m/z = 297.83 → 195.74 for prodrug 1b (rat).
Sample extraction for blood and brain homogenate was by protein precipitation (1:3 or 1:6) using ACN containing suitable internal standard. Extracts were vortexed followed by centrifugation (2800 rpm for 10 min). An aliquot of each supernatant was then diluted two-fold in distilled water ready for analysis by UPLC-MS/MS.
The weighted 1/x^2 calibration line was linear in the dynamic range of 1–5000 ng/mL for inhibitor 1 and 1–1000 ng/mL for prodrug 1b with a correlation coefficient (r^2) > 0.99 (inhibitor 1) or 0.98 (prodrug 1b). The quality control samples (QC) were prepared by using the same spiking scheme as the calibration samples and up to four different target concentration brain levels: 2 ng/mL (LQC), 40 ng/mL (MQC), 100 ng/mL (HQC) and 2000 ng/mL. Data collection, peak integration and calculations were performed using MassLynx software, version 2.1.

MDR1 (P-glycoprotein) = assay: in vitro; type: in vitro ADME, canine; conditions: dog
Protocol: (§1) internal standard at each timepoint. […]
(§2) including an analytical internal standard.
(§3) Apparent permeability (Papp) values were determined from the relationship: […]
(§4) Where V is the volume of each Transwell compartment (apical 125 µL, basolateral 600 µL), and concentrations are the relative MS responses for compound (normalized to internal standard) in the donor chamber before incubation and acceptor chamber at the end of the incubation. Area = area of cells exposed for drug transfer (0.33 cm 2).
(§5) Efflux ratios (Papp B>A / Papp A>B) were calculated for each compound from the […]
(§6) MDR1-MDCK cell line has been engineered to overexpress the efflux transporter, MDR1 (P-glycoprotein), and a finding of good permeability B>A, but poor […]
(§7) order to confirm the involvement of MDR1 in any efflux seen, an “ef fective efflux ratio” (EER) was calculated by comparing compound efflux ratios (ER) in the two cell types, i.e. EER = ER (MDR1-MDCK)/ ER (wild-type MDCK). This ratio illustrates the effect of the over-expressed MDR1 normalised for the background movement of compound through the wild-type cells.
(§8) Lucifer Yellow (LY) was added to the apical buffer in all wells to assess viability of the cell layer. As LY cannot freely permeate lipophilic barriers, a high degree of LY […]
(§9) validity of other wells on the plate.
(§10) Compound recovery from the wells was determined from MS responses (normalized to internal standard) in donor and acceptor chambers at the end of incubation compared to response in the donor chamber pre-incubation.

in vitro = in vitro ADME, canine; conditions: dog, MDCK
Protocol: as §1, §2, §3, §4, §5, §6, §7, §8, §9, §10

[2] = Stability in mouse hepatic microsomes; conditions: for half-life at 1 µM: mouse, pooled liver microsomes
Protocol: 3.6.3 Compound stability in mouse hepatic microsomes and rat hepatocytes
A microsomal stability assay was performed as described in the BioFocus Standard
Operating Procedure ADME-SOP-83, using pooled hepatic mouse
Test and control compounds (midazolam,
dextromethorphan), were prepared in DMSO and incubated at an initial concentration
in the presence of the cofactor, NADPH (1 mM). Aliquots were removed at 0, 5, 10,
20 and 40 minutes for termination of reactions and compound extraction with ACN
containing an analytical internal standard. Samples were centrifuged and the
supernatant fractions analysed for parent compound by mass spectrometry (LC-
MS/MS). The amount of compound remaining (expressed as %) was determined from
the MS response in each sample relative to that in the T = 0 samples (normalised for
internal standard). Ln plots of the % remaining were used to determine the half-life
the slope of the Ln % remaining vs time curve. The in vitro intrinsic clearance Clint

Cc1cc2c(c(C)c1Cl)N(CC(=O)O)C(=O)CO2 [compound 1, (6-chloro-5,7-dimethyl-3-oxo-2,3-dihydro-4H-1,4-benzoxazin-4-yl) acetic acid]
concentration at 5 min ([1]; C57BL6, mouse, whole blood, iv, female C57BL/6 mice, 1 mg/kg i.v. bolus, 5 min, read-out: Level in the blood (mean)): 3780 ± 639 ng/mL
Brain penetrance (in words) ([1]; mouse, 1 mg/kg i.v.): Minimal brain penetrance
In brain ([1]; mouse, 1 mg/kg i.v., 60 min, single mice, analyte inhibitor 1 (also after prodrugs) or 1h): ≤ LLoQ
Papp A→B at 1 h, 10 µM (MDR1 (P-glycoprotein); MDCK-MDR1, pH 7.4, MDR1 MDCK, read-out: Papp A>B Mean): 16 ×10⁻⁶ cm/s
Papp B→A at 1 h, 10 µM (MDR1 (P-glycoprotein); MDCK-MDR1, pH 7.4, MDR1 MDCK, read-out: Papp B>A Mean): 2.1 ×10⁻⁶ cm/s
recovery at 1 h, 10 µM (MDR1 (P-glycoprotein); MDCK-MDR1, pH 7.4, MDR1 MDCK, read-out: Recovery A>B Mean): 99%
recovery at 1 h, 10 µM (MDR1 (P-glycoprotein); MDCK-MDR1, pH 7.4, MDR1 MDCK, read-out: Recovery A>B n=1): 107%
recovery at 1 h, 10 µM (MDR1 (P-glycoprotein); MDCK-MDR1, pH 7.4, MDR1 MDCK, read-out: Recovery A>B n=2): 91%
recovery at 1 h, 10 µM (MDR1 (P-glycoprotein); MDCK-MDR1, pH 7.4, MDR1 MDCK, read-out: Recovery B>A Mean): 84%
recovery at 1 h, 10 µM (MDR1 (P-glycoprotein); MDCK-MDR1, pH 7.4, MDR1 MDCK, read-out: Recovery B>A n=1): 62%
recovery at 1 h, 10 µM (MDR1 (P-glycoprotein); MDCK-MDR1, pH 7.4, MDR1 MDCK, read-out: Recovery B>A n=2): 106%
Papp A→B at 1 h, 10 µM (MDR1 (P-glycoprotein); MDCK-MDR1, pH 7.4, Papp A>B n=1, MDR1 MDCK): 18 ×10⁻⁶ cm/s
Papp A→B at 1 h, 10 µM (MDR1 (P-glycoprotein); MDCK-MDR1, pH 7.4, Papp A>B n=2, MDR1 MDCK): 14 ×10⁻⁶ cm/s
Papp B→A at 1 h, 10 µM (MDR1 (P-glycoprotein); MDCK-MDR1, pH 7.4, Papp B>A n=1, MDR1 MDCK): 1.8 ×10⁻⁶ cm/s
Papp B→A at 1 h, 10 µM (MDR1 (P-glycoprotein); MDCK-MDR1, pH 7.4, Papp B>A n=2, MDR1 MDCK): 2.4 ×10⁻⁶ cm/s
Papp A→B at 1 h, 10 µM (in vitro; pH 7.4, Papp A>B n=1, wild type MDCK): 16 ×10⁻⁶ cm/s
Papp A→B at 1 h, 10 µM (in vitro; pH 7.4, Papp A>B n=2, wild type MDCK): 11 ×10⁻⁶ cm/s
Papp B→A at 1 h, 10 µM (in vitro; pH 7.4, Papp B>A n=1, wild type MDCK): 2.6 ×10⁻⁶ cm/s
Papp B→A at 1 h, 10 µM (in vitro; pH 7.4, Papp B>A n=2, wild type MDCK): 2.3 ×10⁻⁶ cm/s
Papp A→B at 1 h, 10 µM (in vitro; pH 7.4, wild type MDCK, read-out: Papp A>B Mean): 13.5 ×10⁻⁶ cm/s
Papp B→A at 1 h, 10 µM (in vitro; pH 7.4, wild type MDCK, read-out: Papp B>A Mean): 2.45 ×10⁻⁶ cm/s
recovery at 1 h, 10 µM (in vitro; pH 7.4, wild type MDCK, read-out: Recovery A>B Mean): 93.5%
recovery at 1 h, 10 µM (in vitro; pH 7.4, wild type MDCK, read-out: Recovery A>B n=1): 100%
recovery at 1 h, 10 µM (in vitro; pH 7.4, wild type MDCK, read-out: Recovery A>B n=2): 87%
recovery at 1 h, 10 µM (in vitro; pH 7.4, wild type MDCK, read-out: Recovery B>A Mean): 108%
recovery at 1 h, 10 µM (in vitro; pH 7.4, wild type MDCK, read-out: Recovery B>A n=1): 108%
recovery at 1 h, 10 µM (in vitro; pH 7.4, wild type MDCK, read-out: Recovery B>A n=2): 109%
Mean intrinsic clearance ([2]; mouse hepatic microsomes): < 28 µL/min/mg microsome protein
half-life at 1 µM ([2]; Half-life Mean, mouse hepatic microsomes): > 1.67 h
half-life at 1 µM ([2]; Half-life n=1, mouse hepatic microsomes): > 1.67 h
half-life at 1 µM ([2]; Half-life n=2, mouse hepatic microsomes): > 1.67 h
